A word on the CLint scaled: it is a measure of how fast metabolising enzymes remove a compound, apart from limits set by blood flow. Low values mean greater metabolic stability, high ones faster metabolism.

One data set is described as follows: Modified microsomal clearance assay with or without NADPH, human liver microsomes. Type of data set: in vitro ADME. The note with it: HLM, from AUC with/without NADPH vs buffer only. Here is the method: It is of note that the experimental design for the initial round of microsomal clearance assays adds a test compound to microsomes before the reaction is started by the addition of nicotinamide adenine dinucleotide phosphate (NADPH). This design assumes that the major contributing drug-metabolizing enzymes are cytochrome P450s (CYPs). To investigate this further, the experimental design was modified where the reaction was initiated by the addition of a test compound and was carried out in the presence or absence of NADPH. […] By comparison of the measured intrinsic clearance in the presence and absence of NADPH, the contribution of non-CYP450 drug-metabolizing enzymes can be estimated.
Mammalian liver microsomes include CYPs, flavin monooxygenases (FMOs), glucuronosyltransferases ([…]), and esterases as part of their enzyme composition. In the presence of NADPH, which serves as a cofactor for CYP- and FMO-dependent reactions, the observed activity can be attributed to these enzymes. Similarly, UGTs require the cofactor uridine diphosphate glucuronic acid (UDPGA). Therefore, when NADPH and UDPGA are absent, any reduction in the compound can be ascribed only to esterase activity or chemical instability. […] This is based on two factors: (1) the stability of the compounds in HP buffer, which is used in the platelet assays, and (2) the low probability of drug metabolism occurring within the platelets themselves. Together, these minimize the chance that any metabolites with distinct PAR4 potencies could confound the results. By comparing the area under the curve of the compound metabolized from the microsomal incubations in the presence or absence of NADPH to the corresponding area under the curve of the buffer-only incubation, the percent contribution of CYPs and FMOs and esterases were estimated (Table S1). The major contributing enzyme toward the metabolism of 12 is esterases in both the human (96%) and mouse (98%). In contrast, the metabolism of 31 was primarily driven by CYPs and FMOs in both HLM (80%) and MLM (88%).
(§1) In separate 96-well plates for each time point, a mixture of 0.1 M potassium phosphate-buffered (pH 7.4), 3 mM MgCl2, and 2.5 mg/mL microsomes were prewarmed at 37 °C for 5 min. Following the preincubation, a 1 μM test compound and 1 mM NADPH (for 3, 7, 15, 25, or 45 min time points) or buffer (for 0 min time point) were added to initiate the reaction. Under standard conditions, reactions were initiated with the addition of NADPH. To delineate the contribution of esterases, some experiments were initiated by the addition of substrate in the presence or absence of NADPH. Plates were incubated at 37 °C under ambient oxygenation. At the respective times, each plate’s reaction was precipitated by the addition of 2 volumes of ice-cold acetonitrile containing an internal standard (carbamazepine, 50 nM). The plates were centrifuged at 4000 rcf (4 °C) for 5 min. The resulting supernatants were transferred and diluted 1:1 (supernatant:water) into new 96-well plates in preparation for LC/MS/MS analysis. Each compound was assayed in triplicate within the same 96-well plate. The in vitro half-life (t1/2, min, eq 1), intrinsic clearance (CLint, mL/min/kg, eq 2), and subsequent predicted hepatic clearance (CLhep, mL/min/kg, eq 3) were determined employing the following equations [drawing 1] 1 [drawing 2] 2 [drawing 3] 3 The estimated percent contribution to metabolism was calculated from the percent substrate lost plots generated from metabolic incubations initiated with the addition of a test compound. Calculations compared the area under the curve (AUC) from conditions in the presence and absence of NADPH and buffer-only (control) conditions (eqs 4 and 5). AUC was calculated by using the trapezoidal method [drawing 4] 4 [drawing 5] 5
Clint (mL/min/kg) Estimated % Contribution to Metabolism
Compound Human Mouse Human Mouse +NADPH -NADPH +NADPH -NADPH CYPs/FMOs Esterases CYPs/FMOs Esterases […]
(Liver microsomes are vesicles of endoplasmic reticulum, rich in cytochrome P450 enzymes.)
Take `Cn1nc(C(=O)Nc2n[nH]c(-c3c(F)cccc3F)n2)cc1C1CC1` [Compound 12]: the “Estimated % Contribution to Metabolism Human CYPs/FMOs” value is 4% and the “Estimated % Contribution to Metabolism Human Esterases” value is 96%.

In the case of `O=C(Nc1nc[nH]n1)c1nn(-c2ccccc2)c2c1CCC2` [Compound 17], the “Estimated % Contribution to Metabolism Human CYPs/FMOs” value was 39% and the “Estimated % Contribution to Metabolism Human Esterases” value is 61%.

For `O=C(Nc1n[nH]c(-c2ccc(F)cc2F)n1)c1nn(-c2ccccc2)c2c1CCCC2` [Compound 31], the “Estimated % Contribution to Metabolism Human CYPs/FMOs” value is 80% and the “Estimated % Contribution to Metabolism Human Esterases” value is recorded as 20%.

The same data set, now with this note: human, liver microsomes, pH 7.4, HLM, reaction initiated by test compound, +NADPH.
On to `Cn1nc(C(=O)Nc2n[nH]c(-c3c(F)cccc3F)n2)cc1C1CC1` [Compound 12], for which the CLint scaled at 1 µM came out at 642 mL/min/kg.

In the case of `O=C(Nc1nc[nH]n1)c1nn(-c2ccccc2)c2c1CCC2` [Compound 17], the CLint scaled at 1 µM was 26.8 mL/min/kg.

In turn, `O=C(Nc1n[nH]c(-c2ccc(F)cc2F)n1)c1nn(-c2ccccc2)c2c1CCCC2` [Compound 31] returned a CLint scaled at 1 µM of 144 mL/min/kg.

The data set is the same for the next values; noted with them: human, liver microsomes, pH 7.4, HLM, reaction initiated by test compound, -NADPH.
`Cn1nc(C(=O)Nc2n[nH]c(-c3c(F)cccc3F)n2)cc1C1CC1` [Compound 12] gave a CLint scaled at 1 µM of 352 mL/min/kg.

`O=C(Nc1nc[nH]n1)c1nn(-c2ccccc2)c2c1CCC2` [Compound 17] registered a CLint scaled at 1 µM of 12.4 mL/min/kg.

Compound `O=C(Nc1n[nH]c(-c2ccc(F)cc2F)n1)c1nn(-c2ccccc2)c2c1CCCC2` [Compound 31] displayed a CLint scaled at 1 µM of 15.6 mL/min/kg.

A short description of the next data set: Plasma protein binding, human plasma. In kind it is in vitro ADME. The note with it: pH 7.4, read-out: human PPB fu.
For `Cc1cc(C(=O)Nc2n[nH]c(OC(F)F)n2)nn1-c1ccccc1` [Compound 9], the fraction unbound at 4 h was 0.036.

With `Cn1nc(C(=O)Nc2n[nH]c(-c3c(F)cccc3F)n2)cc1C1CC1` [Compound 12], the fraction unbound at 4 h was found to be 0.052.

`O=C(Nc1nc[nH]n1)c1nn(-c2ccccc2)c2c1CCC2` [Compound 17]: the fraction unbound at 4 h turned out to be 0.029.

On to `O=C(Nc1n[nH]c(-c2ccc(F)cc2F)n1)c1nn(-c2ccccc2)c2c1CCCC2` [Compound 31], for which the fraction unbound at 4 h is 0.015.

Take `COc1cccc(-c2nc(NC(=O)c3nn(-c4ccccc4)c4c3CCCC4)n[nH]2)c1` [Compound 32]: the fraction unbound at 4 h was found to be 0.007.

The nature of a further data set: Microsomal stability, human liver microsomes. In kind it is in vitro ADME. The note with it: pH 7.4; human liver microsomes, in vitro, reaction started with NADPH. Here is the method: The metabolic stability of each compound was investigated in mouse and human hepatic microsomes using substrate depletion methodology (% parent compound remaining). Prior to use, microsomes were removed from the freezer and allowed to thaw in a 37 °C water bath before being placed on wet ice.
as §1
The analysis of in vitro samples from microsomal stability or plasma protein binding experiments was determined by employing LCMS/MS with an electrospray ionization-enabled 5500 Sciex instrument (Sciex, Foster City, CA) that was coupled to Agilent HPLC pumps and an autosampler (Agilent Technologies, Santa Clara, CA). Analytes were separated by gradient elution using a Kinetex C18 column (2.1 mm × 50 mm, 5 μm; Phenomenex, Torrance, CA) warmed to 35 °C. Mobile phase A was 0.5% formic acid in water, and mobile phase B was 0.5% formic acid in acetonitrile. […] The total run time was 2.8 min, and the HPLC flow rate was 0.5 mL/min. Mass spectral analyses were performed using multiple reaction monitoring, with transitions and voltages specific for each analyte using a Turbo Ion Spray source (source temperature of 500 °C) in positive ionization mode (5.0 kV spray voltage). Multiple reaction monitoring transitions were the following: 6110B8 (m/z 345.02 → 149.03, DP = 31; EP = 10; CE = 37 and CXP = 14), 6G3R (m/z 421.06 → 225.12, DP = 91; EP = 10; CE = 39 and CXP = 12), 5D22 (m/z 309.068 → 211.16, DP = 131; EP = 10; CE = 29 and CXP = 12), and carbamazepine (m/z 237 → 194, DP = 96; EP = 10; CE = 25 and CXP = 8). Data were analyzed using OS Sciex Analyst 1.5.1 (SCIEX, Framingham, MA), Graphpad Prism 10.1.0 (GraphPad Software, Boston, Massachusetts), and Microsoft Excel version 2310 (Microsoft, Redmond, WA).
`Cc1cc(C(=O)Nc2n[nH]c(OC(F)F)n2)nn1-c1ccccc1` [Compound 9] displayed a CLint scaled at 1 µM of 407 mL/min/kg.

With `Cn1nc(C(=O)Nc2n[nH]c(-c3c(F)cccc3F)n2)cc1C1CC1` [Compound 12], the CLint scaled at 1 µM came out at 478 mL/min/kg.

On to `O=C(Nc1nc[nH]n1)c1nn(-c2ccccc2)c2c1CCC2` [Compound 17], for which the CLint scaled at 1 µM worked out at 49.6 mL/min/kg.

For the compound `O=C(Nc1n[nH]c(-c2ccc(F)cc2F)n1)c1nn(-c2ccccc2)c2c1CCCC2` [Compound 31], the CLint scaled at 1 µM is 459 mL/min/kg.

Compound `COc1cccc(-c2nc(NC(=O)c3nn(-c4ccccc4)c4c3CCCC4)n[nH]2)c1` [Compound 32] had a CLint scaled at 1 µM of 285 mL/min/kg.

Staying with this data set, now noted: predicted hepatic clearance from human liver microsomes.
Consider `Cc1cc(C(=O)Nc2n[nH]c(OC(F)F)n2)nn1-c1ccccc1` [Compound 9], for which the “human CLhep” value is 20 mL/min/kg.

In the case of `Cn1nc(C(=O)Nc2n[nH]c(-c3c(F)cccc3F)n2)cc1C1CC1` [Compound 12], the “human CLhep” value is listed as 20.1 mL/min/kg.

Regarding `O=C(Nc1nc[nH]n1)c1nn(-c2ccccc2)c2c1CCC2` [Compound 17], the “human CLhep” value is on record as 14.8 mL/min/kg.

For `O=C(Nc1n[nH]c(-c2ccc(F)cc2F)n1)c1nn(-c2ccccc2)c2c1CCCC2` [Compound 31], the “human CLhep” value is listed as 20.1 mL/min/kg.

With `COc1cccc(-c2nc(NC(=O)c3nn(-c4ccccc4)c4c3CCCC4)n[nH]2)c1` [Compound 32], the “human CLhep” value is listed as 19.6 mL/min/kg.

A short description of the next data set: Plasma protein binding, mouse plasma. In kind it is in vitro ADME. The settings on record: pH 7.4, read-out: mouse PPB fu. On the procedure:
The protein binding of each compound was determined in mouse plasma via equilibrium dialysis employing single-use RED plates with inserts (Thermo Fisher Scientific, Rochester, NY). Plasma (220 μL) was added to a 96-well plate containing test compound (5 μL) and mixed thoroughly. Subsequently, 200 μL of the plasma–compound mixture was transferred to the cis chamber (red) of the RED plate with an accompanying 350 μL of phosphate buffer (25 mM, pH 7.4) in the trans chamber. The RED plate was sealed and incubated for 4 h at 37 °C with shaking. At completion, 50 μL aliquots from each chamber were diluted 1:1 (50 μL) with either plasma (cis) or buffer (trans) and transferred to a new 96-well plate, at which time ice-cold acetonitrile (2 volumes) was added to extract the matrices. The plate was centrifuged (3000 rpm, 10 min), and supernatants were transferred and diluted 1:1 (supernatant: water) into a new 96-well plate, which was then sealed in preparation for LC/MS/MS analysis. Each compound was assayed in triplicate within the same 96-well plate.
The analysis of in vitro samples from microsomal stability or plasma protein binding experiments was determined by employing LCMS/MS with an electrospray ionization-enabled 5500 Sciex instrument (Sciex, Foster City, CA) that was coupled to Agilent HPLC pumps and an autosampler (Agilent Technologies, Santa Clara, CA). Analytes were separated by gradient elution using a Kinetex C18 column (2.1 mm × 50 mm, 5 μm; Phenomenex, Torrance, CA) warmed to 35 °C. Mobile phase A was 0.5% formic acid in water, and mobile phase B was 0.5% formic acid in acetonitrile. […] The total run time was 2.8 min, and the HPLC flow rate was 0.5 mL/min. […] Data were analyzed using OS Sciex Analyst 1.5.1 (SCIEX, Framingham, MA), Graphpad Prism 10.1.0 (GraphPad Software, Boston, Massachusetts), and Microsoft Excel version 2310 (Microsoft, Redmond, WA).
Consider `Cn1nc(C(=O)Nc2n[nH]c(-c3c(F)cccc3F)n2)cc1C1CC1` [Compound 12], for which the fraction unbound at 4 h stood at 0.169.

Take `O=C(Nc1nc[nH]n1)c1nn(-c2ccccc2)c2c1CCC2` [Compound 17]: the fraction unbound at 4 h worked out at 0.006.

`O=C(Nc1n[nH]c(-c2ccc(F)cc2F)n1)c1nn(-c2ccccc2)c2c1CCCC2` [Compound 31]: the fraction unbound at 4 h came out at 0.044.
